MIC and HC50 data for 8 compounds are collected here from ChEMBL document CHEMBL5042496, “An unanticipated discovery towards novel naphthalimide corbelled aminothiazoximes as potential anti-MRSA agents and allosteric modulators for PBP2a” (Eur J Med Chem, 2022).

The MIC is the smallest concentration in the dilution series that meets the test's criterion for growth inhibition. In general, HC50 refers to the concentration that lyses half of the red blood cells.

≈ marks a conversion by molar mass, not a printed value.

The test system of data set [1] is Staphylococcus aureus. Briefly: Antibacterial activity against methicillin-resistant Staphylococcus aureus assessed as bacterial growth inhibition measured after 24 hrs by two fold serial dilution technique. The class given is functional.
For data set [2], the system named is Enterococcus faecium. Briefly: Antibacterial activity against Enterococcus faecium assessed as bacterial growth inhibition measured after 24 hrs by two fold serial dilution technique. It is filed as functional.
Data set [3] has as its system Staphylococcus aureus. Briefly: Antibacterial activity against Staphylococcus aureus assessed as bacterial growth inhibition measured after 24 hrs by two fold serial dilution technique. It is filed as functional.
For data set [4], the system named is Staphylococcus aureus. Briefly: Antibacterial activity against Staphylococcus aureus ATCC 25923 assessed as bacterial growth inhibition measured after 24 hrs by two fold serial dilution technique. The class given is functional.
For data set [5], the system named is Staphylococcus aureus. The experiment in a line: Antibacterial activity against Staphylococcus aureus ATCC 29213 assessed as bacterial growth inhibition measured after 24 hrs by two fold serial dilution technique. The class given is functional.
Data set [6] deals with Klebsiella pneumoniae. Briefly: Antibacterial activity against Klebsiella pneumoniae assessed as bacterial growth inhibition measured after 24 hrs by two fold serial dilution technique. The class given is functional.
In data set [7] the test system is Acinetobacter baumannii. The experiment in a line: Antibacterial activity against Acinetobacter baumannii assessed as bacterial growth inhibition measured after 24 hrs by two fold serial dilution technique. The class given is functional.
Data set [8] concerns Escherichia coli. Briefly: Antibacterial activity against Escherichia coli assessed as bacterial growth inhibition measured after 24 hrs by two fold serial dilution technique. It is filed as functional.
Data set [9] concerns Pseudomonas aeruginosa. The experiment in a line: Antibacterial activity against Pseudomonas aeruginosa assessed as bacterial growth inhibition measured after 24 hrs by two fold serial dilution technique. The class given is functional.
The subject of data set [10] is Pseudomonas aeruginosa. The experiment in a line: Antibacterial activity against Pseudomonas aeruginosa ATCC 27853 assessed as bacterial growth inhibition measured after 24 hrs by two fold serial dilution technique. It is filed as functional.
The subject of data set [11] is Escherichia coli. Briefly: Antibacterial activity against Escherichia coli ATCC 25922 assessed as bacterial growth inhibition measured after 24 hrs by two fold serial dilution technique. The class given is functional.
The nature of data set [12]: Hemolytic activity in human RBC assessed as hemolysis incubated for 1 hr. The note with it: red blood cells. It is filed as toxicity, cell-based, Erythrocyte.

Consider `O=C(O)c1cn(C2CC2)c2cc(N3CCNCC3)c(F)cc2c1=O` [CIPROFLOXACIN], for which the MIC was 4 µg/mL (≈ 12.1 µM) in data set [1]; 2 µg/mL (≈ 6.04 µM) in [2]; 2 µg/mL (≈ 6.04 µM) in data set [3]; 0.5 µg/mL (≈ 1.51 µM) in data set [4]; 8 µg/mL (≈ 24.1 µM) in [5]; 2 µg/mL (≈ 6.04 µM) in [6]. In data set [7], the MIC is 2 µg/mL (≈ 6.04 µM).

As for `CCCCCCN1C(=O)c2cccc3c(N4CCN(C(=O)/C(=N\OC)c5csc(N)n5)CC4)ccc(c23)C1=O`, the MIC worked out at 32 µg/mL (≈ 58.3 µM) in data set [1]; 64 µg/mL (≈ 117 µM) in data set [2]; 16 µg/mL (≈ 29.2 µM) in data set [3]; 128 µg/mL (≈ 233 µM) in data set [4]; 64 µg/mL (≈ 117 µM) in data set [5]; 64 µg/mL (≈ 117 µM) in data set [6]. Besides, the MIC in data set [8] is 32 µg/mL (≈ 58.3 µM); in data set [9], 64 µg/mL (≈ 117 µM); in data set [7], 8 µg/mL (≈ 14.6 µM); in data set [10] it was 64 µg/mL (≈ 117 µM); in [11] it was 64 µg/mL (≈ 117 µM). Further, in data set [12], the concentration for 50% haemolysis (HC50) at 1 h turned out to be 306 µg/mL.

For `CO/N=C(\C(=O)N1CCN(c2ccc3c4c(cccc24)C(=O)N(C2CCCCC2)C3=O)CC1)c1csc(N)n1`, the minimum inhibitory concentration (MIC) in data set [1] came out at 16 µg/mL (≈ 29.3 µM); in [2], 16 µg/mL (≈ 29.3 µM); in data set [3], 64 µg/mL (≈ 117 µM); in [4], 128 µg/mL (≈ 234 µM); in data set [5] it was 64 µg/mL (≈ 117 µM); in [6], 16 µg/mL (≈ 29.3 µM). The MIC turned out to be 64 µg/mL (≈ 117 µM) in [8]; 128 µg/mL (≈ 234 µM) in [9]; 8 µg/mL (≈ 14.6 µM) in data set [7]; 64 µg/mL (≈ 117 µM) in data set [10]; 64 µg/mL (≈ 117 µM) in data set [11]. Besides, the HC50 at 1 h in data set [12] was 257 µg/mL.

Turning to `CO/N=C(\C(=O)N1CCN(c2ccc3c4c(cccc24)C(=O)N(CC(=O)O)C3=O)CC1)c1csc(N)n1`, the minimal inhibitory concentration (MIC) in data set [1] was 64 µg/mL (≈ 122 µM); in data set [2], 64 µg/mL (≈ 122 µM); in [3] it was 256 µg/mL (≈ 490 µM); in data set [4] it was 128 µg/mL (≈ 245 µM); in [5] it was 64 µg/mL (≈ 122 µM); in data set [6] it was 128 µg/mL (≈ 245 µM). For the same compound, the MIC in data set [8] was 32 µg/mL (≈ 61.2 µM); in data set [9] it was 16 µg/mL (≈ 30.6 µM); in data set [7], 32 µg/mL (≈ 61.2 µM); in [10], 64 µg/mL (≈ 122 µM); in data set [11] it was 64 µg/mL (≈ 122 µM). Besides, the HC50 at 1 h in data set [12] amounted to 1000 µg/mL.

Regarding `CN(C)[C@@H]1C(O)=C(C(N)=O)C(=O)[C@@]2(O)C(O)=C3C(=O)c4c(O)cccc4[C@@](C)(O)[C@H]3C[C@@H]12` [TETRACYCLINE], the MIC in data set [1] was found to be 1 µg/mL (≈ 2.25 µM); in data set [2], 2 µg/mL (≈ 4.5 µM); in [3], 1 µg/mL (≈ 2.25 µM); in data set [4], 4 µg/mL (≈ 9 µM); in data set [5] it was 4 µg/mL (≈ 9 µM); in [6], 16 µg/mL (≈ 36 µM). Besides, the minimal inhibitory concentration (MIC) was 0.25 µg/mL (≈ 0.563 µM) in [8]; 0.25 µg/mL (≈ 0.563 µM) in data set [9]; 0.25 µg/mL (≈ 0.563 µM) in data set [7]; 64 µg/mL (≈ 144 µM) in data set [10]; 1 µg/mL (≈ 2.25 µM) in data set [11].

In the case of `CO/N=C(\C(=O)N1CCN(c2ccc3c4c(cccc24)C(=O)N(C2CCCC2)C3=O)CC1)c1csc(N)n1`, the MIC is 8 µg/mL (≈ 15 µM) in data set [1]; 16 µg/mL (≈ 30 µM) in [2]; 64 µg/mL (≈ 120 µM) in [3]; 64 µg/mL (≈ 120 µM) in [4]; 32 µg/mL (≈ 60.1 µM) in [5]; 32 µg/mL (≈ 60.1 µM) in [6]. Besides, the MIC in [8] is 64 µg/mL (≈ 120 µM); in data set [9], 64 µg/mL (≈ 120 µM); in data set [7], 8 µg/mL (≈ 15 µM); in [10] it was 32 µg/mL (≈ 60.1 µM); in data set [11], 64 µg/mL (≈ 120 µM). Further, the HC50 at 1 h in [12] turned out to be 278 µg/mL.

Regarding `CO/N=C(\C(=O)N1CCN(c2ccc3c4c(cccc24)C(=O)N(NCCO)C3=O)CC1)c1csc(N)n1`, the MIC in data set [1] came out at 4 µg/mL (≈ 7.64 µM); in [2], 64 µg/mL (≈ 122 µM); in data set [3], 64 µg/mL (≈ 122 µM); in data set [4] it was 8 µg/mL (≈ 15.3 µM); in [5], 64 µg/mL (≈ 122 µM); in data set [6], 16 µg/mL (≈ 30.6 µM). The MIC in [8] worked out at 2 µg/mL (≈ 3.82 µM); in [9] it was 32 µg/mL (≈ 61.1 µM); in data set [7], 16 µg/mL (≈ 30.6 µM); in data set [10], 32 µg/mL (≈ 61.1 µM); in data set [11], 128 µg/mL (≈ 244 µM). For the same compound, the HC50 at 1 h in [12] is 325 µg/mL.

In the case of `CO/N=C(\C(=O)N1CCN(c2ccc3c4c(cccc24)C(=O)N(c2nnc(C)s2)C3=O)CC1)c1csc(N)n1`, the MIC is 1 µg/mL (≈ 1.78 µM) in data set [1]; 16 µg/mL (≈ 28.4 µM) in data set [2]; 64 µg/mL (≈ 114 µM) in data set [3]; 64 µg/mL (≈ 114 µM) in data set [4]; 16 µg/mL (≈ 28.4 µM) in data set [5]; 4 µg/mL (≈ 7.11 µM) in data set [6]. In addition, the MIC in data set [8] turned out to be 4 µg/mL (≈ 7.11 µM); in data set [9] it was 32 µg/mL (≈ 56.9 µM); in data set [7], 32 µg/mL (≈ 56.9 µM); in data set [10] it was 32 µg/mL (≈ 56.9 µM); in data set [11], 32 µg/mL (≈ 56.9 µM). Besides, the HC50 at 1 h in data set [12] was found to be 265 µg/mL.
